Experimental data reported in ChEMBL document CHEMBL4507269, “Data for DCP probe BAY-386” (2021).

Legend:
[1] = target: T1, Prostaglandin E2 receptor EP3 subtype (Homo sapiens) (UniProt P43115); test: EP3 (h) Eurofins-Cerep Cellular and Nuclear Receptor Functional Assays; settings: Compound concentration 10.0 uM
T1 sequence (whole entry): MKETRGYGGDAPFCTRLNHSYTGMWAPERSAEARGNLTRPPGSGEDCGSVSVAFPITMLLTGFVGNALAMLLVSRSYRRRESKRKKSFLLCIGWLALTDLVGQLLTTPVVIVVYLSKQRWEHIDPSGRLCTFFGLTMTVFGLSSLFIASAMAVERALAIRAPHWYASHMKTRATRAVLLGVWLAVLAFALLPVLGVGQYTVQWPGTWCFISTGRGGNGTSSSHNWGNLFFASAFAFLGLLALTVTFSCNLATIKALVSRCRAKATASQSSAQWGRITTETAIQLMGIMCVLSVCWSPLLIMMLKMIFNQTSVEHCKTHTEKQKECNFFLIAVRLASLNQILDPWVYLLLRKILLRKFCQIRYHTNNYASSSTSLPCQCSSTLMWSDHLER

[2] = target: T2, 5-hydroxytryptamine receptor 1A (Homo sapiens) (UniProt P08908); test: 5-HT1A (h) Eurofins-Cerep Cellular and Nuclear Receptor Functional Assays; settings: Compound concentration 10.0 uM
T2 sequence (whole entry): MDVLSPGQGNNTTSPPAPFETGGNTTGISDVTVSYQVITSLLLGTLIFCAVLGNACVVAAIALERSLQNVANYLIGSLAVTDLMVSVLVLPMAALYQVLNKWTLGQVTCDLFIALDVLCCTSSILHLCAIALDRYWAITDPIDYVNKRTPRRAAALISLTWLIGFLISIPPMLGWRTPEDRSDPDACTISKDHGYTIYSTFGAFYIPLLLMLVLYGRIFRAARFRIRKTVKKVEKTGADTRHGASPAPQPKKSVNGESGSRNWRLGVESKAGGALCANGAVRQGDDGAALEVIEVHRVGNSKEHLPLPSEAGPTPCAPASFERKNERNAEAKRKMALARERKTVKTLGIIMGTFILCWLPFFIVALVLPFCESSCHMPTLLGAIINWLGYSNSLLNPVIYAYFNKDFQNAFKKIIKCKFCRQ

[3] = target: Mitotic checkpoint serine/threonine-protein kinase BUB1 (Homo sapiens) (UniProt O43683); settings: Compound concentration 1000.0 nM
[4] = target: Calcium/calmodulin-dependent protein kinase type 1D (Homo sapiens) (UniProt Q8IU85); settings: Compound concentration 1000.0 nM
[5] = target: Cyclin-dependent kinase 4 (Homo sapiens) (UniProt P11802); settings: Compound concentration 1000.0 nM
[6] = target: Serine/threonine-protein kinase MRCK gamma (Homo sapiens) (UniProt Q6DT37); settings: Compound concentration 1000.0 nM
[7] = target: Serine/threonine-protein kinase 17A (Homo sapiens) (UniProt Q9UEE5); settings: Compound concentration 1000.0 nM
[8] = test system: Epidermal growth factor receptor (Homo sapiens), P00533 [L861Q]; settings: Compound concentration 1000.0 nM
[9] = test system: Epidermal growth factor receptor (Homo sapiens), P00533 [T790M]; settings: Compound concentration 1000.0 nM
[10] = target: Ephrin type-B receptor 3 (Homo sapiens) (UniProt P54753); settings: Compound concentration 1000.0 nM
[11] = test system: Receptor-type tyrosine-protein kinase FLT3 (Homo sapiens), P36888 [N841I]; settings: Compound concentration 1000.0 nM
[12] = test system: Mast/stem cell growth factor receptor Kit (Homo sapiens), P10721 [V559D,T670I]; settings: Compound concentration 1000.0 nM
[13] = target: Serine/threonine-protein kinase STK11 (Homo sapiens) (UniProt Q15831); settings: Compound concentration 1000.0 nM
[14] = target: Myosin light chain kinase family member 4 (Homo sapiens) (UniProt Q86YV6); settings: Compound concentration 1000.0 nM
[15] = target: Serine/threonine-protein kinase PAK 3 (Homo sapiens) (UniProt O75914); settings: Compound concentration 1000.0 nM
[16] = target: Phosphorylase b kinase regulatory subunit alpha, liver isoform (Homo sapiens) (UniProt P46019); settings: Compound concentration 1000.0 nM
[17] = target: Phosphatidylinositol 4-phosphate 5-kinase type-1 alpha (Homo sapiens) (UniProt Q99755); settings: Compound concentration 1000.0 nM
[18] = target: Serine/threonine-protein kinase D3 (Homo sapiens) (UniProt O94806); settings: Compound concentration 1000.0 nM
[19] = target: Serine/threonine-protein kinase SIK3 (Homo sapiens) (UniProt Q9Y2K2); settings: Compound concentration 1000.0 nM
[20] = target: BDNF/NT-3 growth factors receptor (Homo sapiens) (UniProt Q16620); settings: Compound concentration 1000.0 nM
[21] = target: Phosphatidylinositol 3-kinase catalytic subunit type 3 (Homo sapiens) (UniProt Q8NEB9); settings: Compound concentration 1000.0 nM
[22] = target: Tyrosine-protein kinase ZAP-70 (Homo sapiens) (UniProt P43403); settings: Compound concentration 1000.0 nM
[23] = target: T3, Muscarinic acetylcholine receptor M2 (Homo sapiens) (UniProt P08172); settings: Compound concentration 10.0 uM
T3 sequence (whole entry): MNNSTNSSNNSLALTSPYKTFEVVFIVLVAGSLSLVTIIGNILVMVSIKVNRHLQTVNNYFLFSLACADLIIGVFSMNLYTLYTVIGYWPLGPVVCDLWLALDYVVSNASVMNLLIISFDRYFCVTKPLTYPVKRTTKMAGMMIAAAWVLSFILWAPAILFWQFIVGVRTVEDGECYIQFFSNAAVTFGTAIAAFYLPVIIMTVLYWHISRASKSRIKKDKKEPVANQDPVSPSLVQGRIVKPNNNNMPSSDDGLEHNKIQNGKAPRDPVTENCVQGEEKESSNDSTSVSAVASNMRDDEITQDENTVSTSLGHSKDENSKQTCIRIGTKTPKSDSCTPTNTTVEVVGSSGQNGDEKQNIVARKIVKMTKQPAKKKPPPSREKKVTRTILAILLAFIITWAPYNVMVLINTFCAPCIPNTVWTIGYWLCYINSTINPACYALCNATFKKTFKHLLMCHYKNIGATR

Serine/threonine-protein kinase PAK 3 (Homo sapiens), sequence (O75914 whole entry, looked up, canonical isoform): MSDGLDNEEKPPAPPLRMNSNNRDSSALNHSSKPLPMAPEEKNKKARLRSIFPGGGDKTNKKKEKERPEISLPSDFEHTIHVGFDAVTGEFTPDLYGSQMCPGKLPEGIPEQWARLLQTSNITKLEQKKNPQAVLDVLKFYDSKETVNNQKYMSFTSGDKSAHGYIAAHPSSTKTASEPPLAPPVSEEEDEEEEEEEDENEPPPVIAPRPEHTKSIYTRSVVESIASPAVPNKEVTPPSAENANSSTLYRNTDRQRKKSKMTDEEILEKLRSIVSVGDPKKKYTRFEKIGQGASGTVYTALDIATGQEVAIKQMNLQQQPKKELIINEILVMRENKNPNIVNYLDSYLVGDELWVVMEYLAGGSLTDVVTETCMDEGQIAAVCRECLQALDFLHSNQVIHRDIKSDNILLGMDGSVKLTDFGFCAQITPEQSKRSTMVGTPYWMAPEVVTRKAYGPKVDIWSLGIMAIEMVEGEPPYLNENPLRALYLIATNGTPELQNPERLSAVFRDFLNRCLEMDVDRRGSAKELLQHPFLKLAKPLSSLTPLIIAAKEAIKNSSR
Serine/threonine-protein kinase STK11 (Homo sapiens), sequence (Q15831 whole entry): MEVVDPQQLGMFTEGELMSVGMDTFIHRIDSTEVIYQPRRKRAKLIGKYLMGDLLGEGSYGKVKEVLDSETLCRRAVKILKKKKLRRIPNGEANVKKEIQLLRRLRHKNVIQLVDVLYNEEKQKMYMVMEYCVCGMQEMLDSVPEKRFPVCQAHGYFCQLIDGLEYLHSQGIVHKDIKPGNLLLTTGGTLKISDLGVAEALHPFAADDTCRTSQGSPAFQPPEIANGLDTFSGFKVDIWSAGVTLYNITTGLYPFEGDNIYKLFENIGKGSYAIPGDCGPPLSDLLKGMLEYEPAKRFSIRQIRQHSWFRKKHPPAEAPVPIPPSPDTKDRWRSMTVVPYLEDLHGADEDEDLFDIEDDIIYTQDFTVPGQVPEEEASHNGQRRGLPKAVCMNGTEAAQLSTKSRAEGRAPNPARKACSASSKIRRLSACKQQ
Phosphorylase b kinase regulatory subunit alpha, liver isoform (Homo sapiens), sequence (P46019 whole entry, canonical isoform): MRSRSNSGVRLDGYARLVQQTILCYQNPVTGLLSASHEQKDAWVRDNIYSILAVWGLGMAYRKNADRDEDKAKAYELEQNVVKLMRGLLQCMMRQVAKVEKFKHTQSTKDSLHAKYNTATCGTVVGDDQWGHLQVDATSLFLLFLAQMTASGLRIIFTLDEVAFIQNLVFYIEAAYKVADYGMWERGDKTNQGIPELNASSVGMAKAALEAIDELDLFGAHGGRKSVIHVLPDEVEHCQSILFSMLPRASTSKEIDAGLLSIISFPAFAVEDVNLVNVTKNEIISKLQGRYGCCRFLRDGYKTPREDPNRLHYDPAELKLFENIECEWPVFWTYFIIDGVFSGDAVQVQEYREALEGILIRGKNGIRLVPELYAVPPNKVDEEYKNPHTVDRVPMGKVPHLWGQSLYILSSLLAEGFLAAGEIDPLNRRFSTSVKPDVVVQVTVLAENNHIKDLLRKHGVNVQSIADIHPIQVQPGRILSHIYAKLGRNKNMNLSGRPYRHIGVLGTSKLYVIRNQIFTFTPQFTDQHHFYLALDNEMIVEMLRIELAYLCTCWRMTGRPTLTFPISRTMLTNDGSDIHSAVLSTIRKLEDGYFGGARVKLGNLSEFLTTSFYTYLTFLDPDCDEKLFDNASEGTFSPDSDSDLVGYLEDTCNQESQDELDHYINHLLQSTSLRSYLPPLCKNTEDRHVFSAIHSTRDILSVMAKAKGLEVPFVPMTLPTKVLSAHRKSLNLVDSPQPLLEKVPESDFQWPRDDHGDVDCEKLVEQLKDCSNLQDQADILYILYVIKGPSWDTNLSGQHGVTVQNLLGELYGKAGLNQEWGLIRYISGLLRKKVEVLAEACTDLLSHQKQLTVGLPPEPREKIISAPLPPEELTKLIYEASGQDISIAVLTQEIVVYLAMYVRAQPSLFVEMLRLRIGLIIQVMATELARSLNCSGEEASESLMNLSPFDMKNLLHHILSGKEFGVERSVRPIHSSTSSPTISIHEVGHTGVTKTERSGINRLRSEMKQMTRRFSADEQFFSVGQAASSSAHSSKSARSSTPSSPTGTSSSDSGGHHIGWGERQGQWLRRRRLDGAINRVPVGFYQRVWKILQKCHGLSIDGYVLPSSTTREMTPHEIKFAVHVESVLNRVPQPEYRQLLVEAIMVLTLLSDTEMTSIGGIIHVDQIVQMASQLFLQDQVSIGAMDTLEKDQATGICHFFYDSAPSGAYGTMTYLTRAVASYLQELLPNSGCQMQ
Myosin light chain kinase family member 4 (Homo sapiens), sequence (Q86YV6 whole entry): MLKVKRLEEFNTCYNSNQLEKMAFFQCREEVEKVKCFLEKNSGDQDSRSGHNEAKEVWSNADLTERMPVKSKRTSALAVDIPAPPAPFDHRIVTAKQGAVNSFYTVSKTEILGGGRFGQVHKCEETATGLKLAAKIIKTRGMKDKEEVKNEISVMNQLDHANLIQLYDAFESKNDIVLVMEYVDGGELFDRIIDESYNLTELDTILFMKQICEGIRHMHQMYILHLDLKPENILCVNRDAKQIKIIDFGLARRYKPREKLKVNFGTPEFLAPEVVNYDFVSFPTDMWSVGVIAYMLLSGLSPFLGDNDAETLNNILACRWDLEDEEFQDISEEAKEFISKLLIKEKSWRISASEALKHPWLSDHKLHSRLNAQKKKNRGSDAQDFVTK
Cyclin-dependent kinase 4 (Homo sapiens), sequence (P11802 whole entry): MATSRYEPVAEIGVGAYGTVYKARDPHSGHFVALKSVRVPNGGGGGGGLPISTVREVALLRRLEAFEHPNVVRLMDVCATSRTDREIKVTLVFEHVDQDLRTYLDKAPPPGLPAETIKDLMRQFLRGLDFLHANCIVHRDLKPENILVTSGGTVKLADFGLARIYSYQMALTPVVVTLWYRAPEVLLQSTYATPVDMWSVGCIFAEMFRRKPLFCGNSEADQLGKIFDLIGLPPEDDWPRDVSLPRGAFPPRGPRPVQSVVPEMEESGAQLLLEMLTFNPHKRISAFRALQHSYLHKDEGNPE
Mast/stem cell growth factor receptor Kit (Homo sapiens), P10721 [V559D,T670I], sequence (P10721 whole entry V559D/T670I): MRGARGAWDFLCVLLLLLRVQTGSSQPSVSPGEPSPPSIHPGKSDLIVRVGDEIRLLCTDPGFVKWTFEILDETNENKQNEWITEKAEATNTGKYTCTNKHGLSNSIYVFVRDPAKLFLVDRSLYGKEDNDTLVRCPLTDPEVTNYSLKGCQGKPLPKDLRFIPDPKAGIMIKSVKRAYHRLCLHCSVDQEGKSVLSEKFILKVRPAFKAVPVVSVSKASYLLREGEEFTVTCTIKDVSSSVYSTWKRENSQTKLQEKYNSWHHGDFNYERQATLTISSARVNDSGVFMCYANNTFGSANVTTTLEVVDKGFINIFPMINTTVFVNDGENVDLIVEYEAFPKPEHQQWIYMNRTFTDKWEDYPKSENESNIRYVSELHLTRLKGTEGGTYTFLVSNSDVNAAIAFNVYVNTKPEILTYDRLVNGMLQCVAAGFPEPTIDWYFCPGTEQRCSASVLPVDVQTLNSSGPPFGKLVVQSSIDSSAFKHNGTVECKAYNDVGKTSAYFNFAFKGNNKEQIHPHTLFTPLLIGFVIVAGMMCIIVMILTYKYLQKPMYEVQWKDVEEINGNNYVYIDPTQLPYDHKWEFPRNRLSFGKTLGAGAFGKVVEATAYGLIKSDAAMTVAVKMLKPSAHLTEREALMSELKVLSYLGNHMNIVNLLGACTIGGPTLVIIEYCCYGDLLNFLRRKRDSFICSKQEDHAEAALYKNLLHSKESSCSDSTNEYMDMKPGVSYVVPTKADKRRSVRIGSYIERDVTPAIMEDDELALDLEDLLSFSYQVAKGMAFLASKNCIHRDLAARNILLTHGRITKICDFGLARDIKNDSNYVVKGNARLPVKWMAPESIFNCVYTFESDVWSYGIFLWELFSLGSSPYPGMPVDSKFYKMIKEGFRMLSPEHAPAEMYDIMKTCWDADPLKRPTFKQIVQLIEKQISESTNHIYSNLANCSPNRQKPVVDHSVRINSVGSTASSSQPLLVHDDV
Serine/threonine-protein kinase D3 (Homo sapiens), sequence (O94806 whole entry): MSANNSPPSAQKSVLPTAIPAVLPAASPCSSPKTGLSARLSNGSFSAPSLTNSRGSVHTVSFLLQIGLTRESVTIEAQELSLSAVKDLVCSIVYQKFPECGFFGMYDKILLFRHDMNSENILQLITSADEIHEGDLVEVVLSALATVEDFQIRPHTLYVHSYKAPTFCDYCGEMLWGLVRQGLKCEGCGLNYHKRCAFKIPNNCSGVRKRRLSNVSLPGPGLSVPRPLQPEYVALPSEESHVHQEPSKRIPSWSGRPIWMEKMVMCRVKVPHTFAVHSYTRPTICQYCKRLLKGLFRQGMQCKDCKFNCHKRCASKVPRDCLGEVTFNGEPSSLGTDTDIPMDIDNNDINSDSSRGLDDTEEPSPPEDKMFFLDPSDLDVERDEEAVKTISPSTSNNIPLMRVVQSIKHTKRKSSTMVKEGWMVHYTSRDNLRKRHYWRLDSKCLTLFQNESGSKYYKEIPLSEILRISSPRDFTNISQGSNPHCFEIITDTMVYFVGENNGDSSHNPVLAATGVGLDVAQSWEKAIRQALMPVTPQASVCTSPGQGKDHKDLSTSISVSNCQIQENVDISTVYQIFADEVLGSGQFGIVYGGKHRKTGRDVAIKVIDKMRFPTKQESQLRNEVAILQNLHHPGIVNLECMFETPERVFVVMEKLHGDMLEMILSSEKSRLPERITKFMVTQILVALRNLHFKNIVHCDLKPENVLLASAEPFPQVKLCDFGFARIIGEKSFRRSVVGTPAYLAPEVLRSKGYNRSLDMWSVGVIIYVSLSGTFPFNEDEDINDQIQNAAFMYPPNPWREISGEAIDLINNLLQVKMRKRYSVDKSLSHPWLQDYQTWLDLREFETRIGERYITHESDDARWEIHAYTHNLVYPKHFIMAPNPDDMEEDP

Row | Structure (SMILES) | % Inhibition of Control Agonist Response (Mean n=2) [1] [%] | % of Control Agonist Response (Mean n=2) [1] [%] | % Inhibition of Control Agonist Response (Mean n=2) [2] [%] | % of Control Agonist Response (Mean n=2) [2] [%] | residual activity [3] [%] | residual activity [4] [%] | residual activity [5] [%] | residual activity [6] [%] | residual activity [7] [%] | residual activity [8] [%] | residual activity [9] [%] | residual activity [10] [%] | residual activity [11] [%] | residual activity [12] [%] | residual activity [13] [%] | residual activity [14] [%] | residual activity [15] [%] | residual activity [16] [%] | residual activity [17] [%] | residual activity [18] [%] | other results
1 | O=C(N1CCS(=O)(=O)CC1)N1C[C@H](c2ccc(OC(F)(F)F)cc2)C[C@H](c2nc(C3CC3)no2)C1 [BAY-386] | -8 | 4.5 | 25.6 | -0.2 | 100 | 91 | 96 | 100 | 100 | 68 | 100 | 100 | 100 | 100 | 92 | 100 | 100 | 100 | 100 | 100 | residual activity [19]: 77%; residual activity [20]: 94%; residual activity [21]: 100%; residual activity [22]: 90%; inhibition [23]: -9.14%
2 | Cc1noc([C@H]2C[C@@H](c3ccc(C(F)(F)F)cc3)CN(C(=O)N3CCS(=O)(=O)C3)C2)n1 [BAY-448] | 0.6 | -0.6 | -23 | 1.1 | 100 | 100 | 100 | 100 | 100 | 78 | 77 | 100 | 100 | 100 | 100 | 100 | 100 | 100 | 88 | 100 | residual activity [19]: 78%; residual activity [20]: 83%; residual activity [21]: 90%; residual activity [22]: 100%; inhibition [23]: 39.5%
